# According to US10882837B2, “Amide compounds and use thereof” (ALPHALA CO., LTD., priority 2017, dated 2021):
# Key:
# GCGR = GCGR (Homo sapiens, UniProt P47871); test: I125-glucagon binding assay (competition, GCGR membrane fractions); set-up: expressed in transfected cells; host or cells: CHO-K1; inhibition: dose or concentration left out as unconfirmed; details: for IC50: competition with I125-glucagon 0.0625 nM, membrane fractions from GCGR overexpressed CHO-K1 cells
# Description: I^125-Glucagon Binding Assay
# The binding affinity of each compound was evaluated by a competition assay with I^125-glucagon. GCGR membrane fractions were obtained from GCGR overexpressed CHO-K1 cells as a stock of 1 mg/ml concentration. To evaluate the IC50 of compounds binding to GCGR, GCGR membrane fractions were treated with compounds with a serial dilution. The membrane fractions were diluted to 7.5 microgram per well in 70 microliter assay buffer contained 50 mM Tris pH 7.4 and 0.5% (w/v) bovine serum albumin and added into 96 wells plate. The membrane fractions were then mixed with 10 microliter diluted compounds. After 5 minutes pre-incubation, 20 microliter I^125 labeled glucagon (Perkin Elmer) was added into each well at the final concentration of 0.0625 nM. The assay mixtures were incubated at 25° C. for 30 minutes and then transferred onto the Millipore Multiscreen GF/B Plate coated with 0.5% (w/v) Polyethyleneimine. The filter plate was washed with wash buffer contained 50 mM Tris pH 7.4 for 2 times, 300 microliter each time. The residual isotope was detected by Hidex CHAMELEON V micro-beta counter and the IC50 value of each compound binding to GCGR was calculated with non-linear regression.
# glucagon receptor (GCGR) = molecular target: T1, glucagon receptor (GCGR) (Homo sapiens, UniProt P47871); test: Glucagon cAMP inhibition assay (Cisbio cAMP Dynamic 2 HTRF); assay type: cell-based; details: GCGR overexpressed CHO-K1 cells or human primary hepatocytes (not specified); glucagon at EC50
# T1 construct: expressed in transfected cells; host or cells: CHO-K1
# T1 sequence (P47871 26-477, species assumed): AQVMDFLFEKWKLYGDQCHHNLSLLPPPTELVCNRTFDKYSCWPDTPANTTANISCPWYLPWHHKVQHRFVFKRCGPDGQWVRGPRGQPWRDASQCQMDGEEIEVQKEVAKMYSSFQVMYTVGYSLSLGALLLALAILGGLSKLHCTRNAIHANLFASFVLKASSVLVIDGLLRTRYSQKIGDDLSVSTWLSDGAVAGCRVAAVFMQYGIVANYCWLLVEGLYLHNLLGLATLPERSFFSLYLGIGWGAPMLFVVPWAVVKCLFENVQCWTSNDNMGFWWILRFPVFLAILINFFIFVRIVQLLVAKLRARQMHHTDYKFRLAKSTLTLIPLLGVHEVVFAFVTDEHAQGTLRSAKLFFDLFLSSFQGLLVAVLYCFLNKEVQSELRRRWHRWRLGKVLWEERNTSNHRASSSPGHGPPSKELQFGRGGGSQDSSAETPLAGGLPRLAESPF
# Description: Glucagon eAMP Inhibition Assay
# Downstream secondary messenger eAMP induced by glucagon was detected by Cisbio cAMP Dynamic 2 kit. Testing compounds were each prepared as a dimethyl sulfoxide (DMSO) solution at the concentration of 10 mM. To evaluate the potency of compounds in inhibiting the cAMP production, glucagon receptor (GCGR) overexpressed CHO-K1 cells or human primary hepatocytes were treated with compounds with a serial dilution. The cells were re-suspended in Hank's Balanced Salt solution (HBSS) contained 0.1% (w/v) bovine serum albumin and 800 nM 3-isobutyl-1-methylxanthine (IBMX) and seeded into low volume, 384 wells white plate. The diluted compounds were then added into the plate for 30 minutes pre-incubation where the final DMSO concentration was 1%. The cells were stimulated with glucagon at the concentration equaled to EC50 (an indicium of the concentration of a drag that gives half-maximal response) for 30 minutes at room temperature. After incubation, lysis buffer contain cAMP antibody and fluorescence acceptor were added into each well for additional 60 minutes incubation. Results were recorded by Molecular Devices SpectraMax Paradigm with the HTRF Detection Cartridges and the IC50 value of each compound in inhibiting the cAMP production was calculated with non-linear regression based on the amount of cAMP production.
# Sequence of GCGR (P47871 26-477, species assumed): as above
IC50 (GCGR),IC50 (glucagon receptor (GCGR)),inhibition (GCGR; read-out: percentage of inhibition (number in parenthesis in IC50 binding column)),SMILES
637 nM,52 nM,–,"CCOC(=O)CCNC(=O)c1ccc(N[C@@H](CC(C)C)c2ccc(-c3nc(-c4ccccc4)no3)cc2)cc1 [Compound 5-1, ethyl (S)-3-(4-((3-methyl-1-(4-(3-phenyl-1,2,4-oxadiazol-5-yl)phenyl)butyl)amino)benzamido)propanoate]"
171 nM,878 nM,–,"CC(C)C(Nc1ccc(C(=O)NCCC(=O)O)cc1)c1ccc(-c2noc(C(C)(C)C)n2)cc1 (centres unmarked) [Compound 2-2, 3-(4-((1-(4-(5-(tert-butyl)-1,2,4-oxadiazol-3-yl)phenyl)-2-methylpropyl)amino)benzamido)propanoic acid]"
40 nM,852 nM,–,"CCCC[C@@H](Nc1ccc(C(=O)NCCC(=O)OCC)cc1)c1ccc(-c2noc(-c3ccccc3)n2)cc1 [Compound 2-35, ethyl (R)-3-(4-((1-(4-(5-phenyl-1,2,4-oxadiazol-3-yl)phenyl)pentyl)amino)benzamido)propanoate]"
2610 nM,31 nM,–,"CCCC(Nc1ccc(C(=O)NCCC(=O)OCC)cc1)c1ccc(-c2nnc(-c3ccccc3)o2)cc1 (centres unmarked) [Compound 1-6, Ethyl 3-(4-((1-(4-(5-phenyl-1,3,4-oxadiazol-2-yl)phenyl)butyl)amino)benzamido)propanoate]"
285 nM,53.4 nM,–,"CCOC(=O)CCNC(=O)c1ccc(N[C@H](c2ccc(-c3nc4ccccc4o3)cc2)C(C)C)nc1 [Compound 4-29, ethyl (S)-3-(6-((1-(4-(benzo[d]oxazol-2-methylpropyl)amino)nicotinamido propanoate]"
1320 nM,933 nM,–,"CCCCC(Nc1ccc(-c2nnc(-c3ccccc3)o2)cc1)c1ccc(C(=O)NCCC(=O)OCC)cc1 (centres unmarked) [Compound 3-3, ethyl 3-(4-(1-((4-(5-phenyl-1,3,4-oxadiazol-2-yl)phenyl)amino)pentyl)benzamido)propanoate]"
314 nM,> 30000 nM,–,"CCCCC(Nc1ccc(C(=O)NCCS(=O)(=O)O)cc1)c1ccc(-c2nnc(-c3ccccc3)o2)cc1 (centres unmarked) [Compound 1-13, 2-(4-((1-(4-(5-phenyl-1,3,4-oxadiazol-2-yl)phenyl)pentyl)amino)benzamido)ethane-1-sulfonic acid]"
> 30000 nM,487 nM,–,"CCOC(=O)CCNC(=O)c1ccc(C(Oc2ccc(-c3nc4ccccc4o3)cc2)C(C)C)cc1 (centres unmarked) [Compound 7-1, Ethyl 3-(4-(1-(4-(benzo[d]oxazol-2-yl)phenoxy)-2-methylpropyl)benzamido)propanoate]"
27 nM,4690 nM,–,"CC(C)C(Nc1ccc(C(=O)NCCC(=O)O)cc1)c1ccc(-c2nnc(-c3ccccc3)o2)cc1 (centres unmarked) [Compound 1-1, 3-(4-((2-Methyl-1-(4-(5-phenyl-1,3,4-oxadiazol-2-yl)phenyl)propyl)amino)benzamido)propanoic acid]"
455 nM,6710 nM,–,CC(C)CC(Nc1ccc(C(=O)NCCC(=O)O)cc1)c1ccc(-c2nnc(C(C)(C)C)o2)cc1 (centres unmarked) [Compound 1-12]
1490 nM,105 nM,31%,"CCOC(=O)CCNC(=O)c1ccc(NC(CC(C)C)c2ccc(-c3noc(-c4ccccc4)n3)cc2)cc1 (centres unmarked) [Compound 2-9, ethyl 3-(4-((3-methyl-1-(4-(5-phenyl-1,2,4-oxadiazol-3-yl)phenyl)butyl)amino)benzamido)propanoate]"
106 nM,450 nM,–,"O=C(O)CCNC(=O)c1ccc(NC(c2ccc(-c3noc(-c4ccccc4)n3)cc2)C2CCCC2)cc1 (centres unmarked) [Compound 2-15, 3-(4-((cyclopentyl(4-(5-phenyl-1,2,4-oxadiazol-3-yl)phenyl)methyl)amino)benzamido)propanoic acid]"
85 nM,569 nM,–,"CCC(C)[C@@H](Nc1ccc(C(=O)NCCC(=O)O)cc1)c1ccc(-c2noc(-c3ccccc3)n2)cc1 (stereo partly drawn) [Compound 2-21, 3-(4-(((1R)-2-methyl-1-(4-(5-phenyl-1,2,4-oxadiazol-3-yl)phenyl)butyl)amino)benzamido)propanoic acid]"
42 nM,248 nM,–,"CCOC(=O)CCNC(=O)c1ccc(N[C@H](CC(C)C)c2ccc(-c3noc(-c4ccccc4)n3)cc2)cc1 [Compound 2-42, ethyl (R)-3-(4-((3-methyl-1-(4-(5-phenyl-1,2,4-oxadiazol-3-yl)phenyl)butyl)amino)benzamido)propanoate]"
127 nM,42.3 nM,–,"CCOC(=O)CCNC(=O)c1ccc(N[C@H](c2ccc(-c3nc4ccccc4s3)cc2)C(C)C)nc1 [Compound 4-27, ethyl (S)-3-(6-((1-(4-(benzo[d]thiazol-2-yl)phenyl)-2-methylpropyl)amino)nicotinamido)propanoate]"
537 nM,1000 nM,–,"CC(C)[C@@H](Nc1ccc(C(=O)NCCC(=O)O)cc1)c1ccc(-c2noc(-c3ccccc3)n2)cc1 [Compound 2-23, (R)-3-(4-((2-methyl-1-(4-(5-phenyl-1,2,4-oxadiazol-3-yl)phenyl)propyl)amino)benzamido)propanoic acid]"
175 nM,4130 nM,–,"CC(C)CC(Nc1ccc(C(=O)NCCC(=O)O)cc1)c1ccc(-c2nnc(-c3ccccc3)o2)cc1 (centres unmarked) [Compound 1-5, 3-(4-((3-Methyl-1-(4-(5-phenyl-1,3,4-oxadiazol-2-yl)phenyl)butyl)amino)benzamido)propanoic acid]"
> 30000 nM,162 nM,–,"CCOC(=O)CCNC(=O)c1ccc(N[C@@H](c2ccc(-c3nnc(-c4ccccc4)o3)cc2)C(C)C)cc1 [Compound 1-40, (R)-ethyl 3-(4-(2-methyl-1-(4-(5-phenyl-1,3,4-oxadiazol-2-yl)phenyl)propylamino)benzamido)propanoate]"
274 nM,1390 nM,–,"CC(C)CC(Nc1ccc(C(=O)NCCC(=O)O)cc1)c1ccc(-c2noc(-c3cccs3)n2)cc1 (centres unmarked) [Compound 2-14, 3-(4-((3-methyl-1-(4-(5-(thiophen-2-yl)-1,2,4-oxadiazol-3-yl)phenyl)butyl)amino)benzamido)propanoic acid]"
> 30000 nM,114 nM,–,"CCOC(=O)CCNC(=O)c1ccc(N[C@H](CC(C)C)c2ccc(-c3nnc(-c4ccccc4)o3)cc2)cc1 [Compound 1-60, ethyl (R)-3-(4-((3-methyl-1-(4-(5-phenyl-1,3,4-oxadiazol-2-yl)phenyl)butyl)amino)benzamido)propanoate]"
350 nM,43 nM,–,"CCCC[C@H](Nc1ccc(C(=O)NCCC(=O)OCC)cc1)c1ccc(-c2nc3ccccc3o2)cc1 [Compound 4-15, ethyl (S)-3-(4-((1-(4-(benzo[d]oxazol-2-yl)phenyl)pentyl)amino)benzamido)propanoate]"
563 nM,4760 nM,–,"CC(C)CC(Nc1ccc(C(=O)NCCC(=O)O)cc1)c1ccc(-c2nnc(-c3ccc(F)cc3)o2)cc1 (centres unmarked) [Compound 1-28, 3-(4-((1-(4-(5-(4-fluorophenyl)-1,3,4-oxadiazol-2-yl)phenyl)-3-methylbutyl)amino)benzamido)propanoic acid]"
17 nM,984 nM,–,"CCC(C)[C@H](Nc1ccc(C(=O)NCCC(=O)O)cc1)c1ccc(-c2nc3ccccc3o2)cc1 (stereo partly drawn) [Compound 4-20, 3-(4-(((1S)-1-(4-(benzo[d]oxazol-2-yl)phenyl)-2-methylbutyl)amino)benzamido)propanoic acid]"
> 30000 nM,830 nM,–,"CCCC[C@@H](Nc1ccc(C(=O)NCCC(=O)OCC)cc1)c1ccc(-c2nnc(-c3ccccn3)o2)cc1 [Compound 1-44, ethyl (R)-3-(4-((1-(4-(5-(pyridin-2-yl)-1,1,3,4-oxadiazol-2-yl)phenyl)pentyl)amino)benzamido propanoate]"
1480 nM,46.4 nM,–,"CCCC[C@H](Nc1ccc(C(=O)NCCC(=O)OCC)cc1)c1ccc(-c2nnc(-c3ccccn3)o2)cc1 [Compound 1-43, ethyl (S)-3-(4-((1-(4-(5-(pyridin-2-yl)-1,3,4-oxadiazol-2-yl)phenyl)pentyl)amino)benzamido)propanoate]"
> 30000 nM,439 nM,–,"CCCC[C@@H](Nc1ccc(C(=O)NCCC(=O)OCC)cc1)c1ccc(-c2nnc(C(F)(F)F)o2)cc1 [Compound 1-52, ethyl (R)-3-(4-((1-(4-(5-(trifluoromethyl)-1,3,4-oxadiazol-2-yl)phenyl)pentyl)amino)benzamido)propanoate]"
